In patent publication US8460718B2, “Synergistic compositions and methods” (LycoRed Ltd., priority 2011, dated 2013):

Tests used:
[1] = in animals; cited from earlier work
[2] = system: LNCaP, human androgen dependent prostate cancer cells; assay: LNCaP cell proliferation, [3H]thymidine incorporation assay; type: cell-based; conditions: LNCaP cells stimulated by 1 nM DHT, treated 3 days; for cell growth inhibition (thymidine incorporation), phytosterol alone: phytosterol alone 0-50 μM
Description: In these experiments, LNCaP cells were preincubated for 24 hours in 0.5% serum and then growth (quantified by measuring thymidine incorporation) was stimulated by 1 nM DHT. Stimulated cells were treated for 3 days with the indicated concentration of the phytosterols alone, or in combination with 0.4 μM lycopene. Data presented are the mean±SE of 2-3 independent experiments performed in quadruplicates.
Cell culture and cell proliferation assay: LNCaP, human androgen dependent prostate cancer cells, were purchased from American Type Culture Collection (Rockwell, Md.). Cells were grown in RPMI1640 containing 0.6 μg/ml insulin. All culture media were supplemented with L-glutamine (2 mM), penicillin (100 U/ml), streptomycin (0.1 mg/ml), nystatin (12.5 μg/ml), and 10% FCS. Cells were seeded in medium containing 3% FCS or 3% DCC phenol red free medium and 10 mM HEPES onto 96- and 6-multiwell plates (4-7×10^3 and 1.7×10^5 cells/well, respectively). One day later, the medium was changed to 0.5% FCS or 0% medium for an additional one day of incubation. Then the medium was changed to one containing the micronutrients (phytosterols, carotenoids, phospholipids, etc.) at the indicated concentrations and incubation was continued for 1-3 days. In order to assure that the agent was continuously present during prolonged incubation, the medium was replaced daily with one containing fresh carotenoids. Lycopene was dissolved in tetrahydrofuran at a concentration of 2 mM and stored at −20° C. Immediately before the experiment, the stock solution was added to the cell culture medium. The final concentration of lycopene in the medium was measured by spectrophotometry after extraction in 2-propanol and n-hexane:dichloromethane [3H]thymidine incorporation assay was performed in 96-multiwell plates. Cells were incubated with 1.25-2.50 uCi/well of [3H]thymidine (specific radioactivity 5 mCi/mmol in μCi/well) for one to four hours. The nucleotide incorporation was stopped by addition of unlabeled thymidine (0.5 μmol). The cells were then trypsinized and collected on a glass-fiber filter using a cell harvester (Inotech). Radioactivity was determined by a radioactive image analyzer (BAS 1000, Fuji).
All procedures were performed under dim light in order to prevent carotenoid degradation.
FIGS. 1A-1E. LNCaP cell were preincubated for 24 hours in 0.5% serum and then growth (thymidine incorporation) was stimulated by 1 nM DHT. Stimulated cells were treated for 3 days with the indicated concentrations of the phytosterols alone, or in combination with 0.4 μM Lycopene. Data presented are the mean±SE of 2-3 independent experiments performed in quadruplicates.

[3] = system: MDA-MB-231 human breast cancer; conditions: MDA-MB-231, 16 μM; cited from earlier work
[4] = in vivo; cited from earlier work
[5] = system: MCF-7 human breast cancer; conditions: MCF-7, 0.001 to 150 μM; cited from earlier work
[6] = system: phorbol esters (PMA)-stimulated macrophages (RAW 264.7 cells); conditions: cited from earlier work
[7] = system: LNCaP human prostate cancer; conditions: 16 μM; cited from earlier work
HT-29 human colon cancer = conditions: HT-29, 16 μM; cited from earlier work
[8] = RAW 264.7, effects 3-6 hours after preincubation

## CC[C@H](/C=C/[C@@H](C)[C@H]1CC[C@H]2[C@@H]3CC=C4C[C@@H](O)CC[C@]4(C)[C@H]3CC[C@]12C)C(C)C [Stigmasterol]
[1]
  intestinal absorption: only absorbed minimally
[2]
  cell growth inhibition (thymidine incorporation), phytosterol alone: did not have any effect on cell growth inhibition

## CC(C)CCC[C@@H](C)[C@H]1CC[C@H]2[C@@H]3CC=C4C[C@@H](O)CC[C@]4(C)[C@H]3CC[C@]12C [cholesterol, reference compound]
[3]
  growth: unchanged
[4]
  absorption: 35-70%

## CC[C@H](CC[C@@H](C)[C@H]1CC[C@H]2[C@@H]3CC=C4C[C@@H](O)CC[C@]4(C)[C@H]3CC[C@]12C)C(C)C [β-sitosterol]
[5]
  growth: increase
[6]; [8]
  H2O2 production induced by PMA: decrease
  O2(−) production induced by PMA: decrease
[6]; RAW 264.7
  NO release induced by PMA: reduced
  inducible nitric oxide synthase (iNOS) levels: impairment
[7]
  PSA levels: reduced PSA
  growth: inhibition;
HT-29 human colon cancer
  growth: inhibition
[2]
  cell growth inhibition (thymidine incorporation), phytosterol alone: inhibited prostate cancer cell proliferation in a dose dependent manner
[3]
  growth: inhibition

## CC(C)[C@H](C)CC[C@@H](C)[C@H]1CC[C@H]2[C@@H]3CC=C4C[C@@H](O)CC[C@]4(C)[C@H]3CC[C@]12C [Campesterol]
[1]
  intestinal absorption: better absorbed than β-sitosterol
[2]
  cell growth inhibition (thymidine incorporation), phytosterol alone: did not have any effect on cell growth inhibition
[3]
  growth: unchanged

## CC(C)=CCC/C(C)=C/C=C/C(C)=C/C=C/C(C)=C/C=C/C=C(C)/C=C/C=C(C)/C=C/C=C(\C)CCC=C(C)C [lycopene]
[2]; 0.4 μM lycopene alone
  cell growth inhibition (thymidine incorporation), lycopene alone: did not inhibit proliferation
